The source of these data is ChEMBL document CHEMBL4818987, “Recent advances of podophyllotoxin/epipodophyllotoxin hybrids in anticancer activity, mode of action, and structure-activity relationship: An update (2010-2020)” (Eur J Med Chem, 2020).

A value given as a limit tells only on which side of the number the result lay.

For assay [1], the system named is A549. In words: Antiproliferative activity against human A549 cells by MTT assay. It counts as functional, cell-based. (In general: Tetrazolium assays rely on reduction of a dye to a coloured formazan, in cell work by metabolically active cells.)
Assay [2] relates to SW480. In words: Antiproliferative activity against human SW480 cells by MTT assay. It is filed as functional, cell-based.
Assay [3] has as its system HL-60. In words: Antiproliferative activity against human HL-60 cells by MTT assay. It is filed as functional, cell-based.
Assay [4] deals with SMMC-7721. Kind of assay: Antiproliferative activity against human SMMC-7721 cells by MTT assay. It counts as functional, cell-based.
The subject of assay [5] is MCF7. In words: Cytotoxicity against human MCF7 cells by MTT assay. It counts as functional, cell-based.
Assay [6] has as its target Prostaglandin G/H synthase 2 (Mus musculus, UniProt Q05769, R106Q). In words: Inhibition of mouse COX2 R120Q mutant.
A further assay relates to RKO. In words: Antiproliferative activity against human RKO cells incubated for 48 hrs by CCK8 assay. It counts as functional, cell-based.
For a further assay, the system named is RAW264.7. In words: Antiproliferative activity against mouse RAW264.7 cells incubated for 48 hrs by CCK8 assay. It is filed as functional, cell-based. The note with it: RAW264.7, 48 h.
The subject of a further assay is MDA-MB-231. In words: Antiproliferative activity against human MDA-MB-231 cells incubated for 48 hrs by CCK8 assay. It is filed as functional, cell-based. The settings on record: MDA-MB-231, 48 h.
The next assay deals with IMR-5. Kind of assay: Antiproliferative activity against human IMR5 cells incubated for 48 hrs by CCK8 assay. The note with it: IMR-5, 48 h. It is filed as functional, cell-based.
Another assay relates to NCI-H292. In words: Antiproliferative activity against human NCI-H292 cells incubated for 48 hrs by CCK8 assay. It is filed as functional, cell-based. The settings on record: NCI-H292, 48 h.
Assay [7] concerns the target Prostaglandin G/H synthase 2 (Mus musculus, UniProt Q05769, S516A). In words: Inhibition of mouse COX2 S530A mutant.
The target in assay [8] is Prostaglandin G/H synthase 2 (Mus musculus, UniProt Q05769, V509I). Kind of assay: Inhibition of mouse COX2 V523I mutant.
Chain of Prostaglandin G/H synthase 2 (Mus musculus, UniProt Q05769, V509I) (Q05769 18-604 V509I limits assumed): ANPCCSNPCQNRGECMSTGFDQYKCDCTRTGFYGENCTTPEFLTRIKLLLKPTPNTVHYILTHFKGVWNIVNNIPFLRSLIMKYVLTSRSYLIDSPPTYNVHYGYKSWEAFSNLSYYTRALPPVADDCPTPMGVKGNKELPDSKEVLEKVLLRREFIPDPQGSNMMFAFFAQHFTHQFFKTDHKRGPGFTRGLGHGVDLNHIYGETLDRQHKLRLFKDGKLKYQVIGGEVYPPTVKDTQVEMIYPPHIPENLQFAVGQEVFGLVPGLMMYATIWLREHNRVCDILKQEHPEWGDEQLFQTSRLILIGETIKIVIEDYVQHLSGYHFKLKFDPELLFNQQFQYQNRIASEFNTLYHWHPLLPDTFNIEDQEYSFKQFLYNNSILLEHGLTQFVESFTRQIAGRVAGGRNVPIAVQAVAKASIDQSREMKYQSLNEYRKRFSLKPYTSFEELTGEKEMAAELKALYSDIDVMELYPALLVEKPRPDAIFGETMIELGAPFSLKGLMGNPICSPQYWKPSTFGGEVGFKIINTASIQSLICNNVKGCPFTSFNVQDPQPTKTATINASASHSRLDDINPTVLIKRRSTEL
Assay [9] can be described thus: Antitumor activity against human HNSCC-1483 cells xenografted in mouse assessed as reduction in tumor growth at 2 mg/kg administered for 14 days and measured on day 2 to day 15 by electronic caliper method relative to control. It counts as functional. The note with it: MDA-1483, 336 h, time 14 day, read-out: TGI.
In another assay the test system is HCT-116. In words: Antiproliferative activity against human HCT116 cells incubated for 48 hrs by CCK8 assay. It is filed as functional, cell-based. The note with it: HCT-116, 48 h.
Assay [10] addresses Prostaglandin G/H synthase 2 (Mus musculus, UniProt Q05769). In words: Inhibition of mouse COX2.
A short description of assay [11]: Antiproliferative activity against human HCA7 cells incubated for 48 hrs by CCK8 assay. It is filed as functional, cell-based. The settings on record: HCA-7, 48 h.
A short description of assay [12]: Potency index, ratio of etoposide IC50 to test compound IC50 for antiproliferative activity against human MUM-2B cells. It counts as functional.
Assay [13] in a line: Cytotoxicity against human C918 cells incubated for 72 hrs by CCK8 assay. It counts as functional, cell-based. The settings on record: C918, 72 h.
The nature of assay [14]: Potency index, ratio of etoposide IC50 to test compound IC50 for antiproliferative activity against human C918 cells. It is filed as functional.
The nature of assay [15]: Cytotoxicity against human MUM-2B cells incubated for 72 hrs by CCK8 assay. It counts as functional, cell-based.
Assay [16] concerns A549. Kind of assay: Antiproliferative activity against human A549 cells incubated for 72 hrs by MTT assay. It counts as functional, cell-based. The settings on record: A549, 72 h.
Assay [17] relates to SMMC-7721. Kind of assay: Antiproliferative activity against human SMMC-7721 cells incubated for 48 hrs by MTT assay. The note with it: SMMC-7721, 48 h. It is filed as functional, cell-based.
For assay [18], the system named is HL-60. In words: Potency index, ratio of etoposide IC50 to test compound IC50 for antiproliferative activity against human HL60 cells. It counts as functional.
Assay [19] has as its system SW480. Kind of assay: Potency index, ratio of etoposide IC50 to test compound IC50 for antiproliferative activity against human SW480 cells. It counts as functional.
The test system of assay [20] is HL-60. Kind of assay: Antiproliferative activity against human HL-60 cells incubated for 48 hrs by MTT assay. It is filed as functional, cell-based. The settings on record: HL-60, 48 h.
Assay [21] has as its system MCF7. Kind of assay: Potency index, ratio of etoposide IC50 to test compound IC50 for antiproliferative activity against human MCF7 cells. It counts as functional.
For assay [22], the system named is A549. In words: Potency index, ratio of etoposide IC50 to test compound IC50 for antiproliferative activity against human A549 cells. It is filed as functional.
Assay [23] has as its system SMMC-7721. In words: Potency index, ratio of etoposide IC50 to test compound IC50 for antiproliferative activity against human SMMC7721 cells. It is filed as functional.
For assay [24], the system named is MCF7. Kind of assay: Antiproliferative activity against human MCF7 cells incubated for 48 hrs by MTT assay. It is filed as functional, cell-based. The settings on record: MCF7, 48 h.
Assay [25] concerns SW480. In words: Antiproliferative activity against human SW480 cells incubated for 48 hrs by MTT assay. It is filed as functional, cell-based. The note with it: SW480, 48 h.
The subject of assay [26] is HepG2. Kind of assay: Antiproliferative activity against human HepG2 cells incubated for 48 hrs by MTT assay. It is filed as functional, cell-based. The settings on record: HepG2, 48 h.
The subject of assay [27] is HepG2. Kind of assay: Antitumor activity against human HepG2 cells xenografted in BALB/c nude mouse assessed as tumor weight suppression at 1 mg/kg, ip administered every 6 days for 20 days and measured every 2 days by digital caliper method relative to control. It is filed as functional, organism-based. The note with it: time 20 day.
Assay [28] in a line: Antiproliferative activity against human HCCLM3 cells incubated for 48 hrs by MTT assay. It is filed as functional, cell-based. The note with it: HCCLM3, 48 h.

Chain of Prostaglandin G/H synthase 2 (Mus musculus, UniProt Q05769, S516A) (Q05769 18-604 S516A limits assumed): as the sequence (Q05769 18-604 V509I limits assumed) above, with I492V, S499A counted along it
Chain of Prostaglandin G/H synthase 2 (Mus musculus, UniProt Q05769) (Q05769 whole entry): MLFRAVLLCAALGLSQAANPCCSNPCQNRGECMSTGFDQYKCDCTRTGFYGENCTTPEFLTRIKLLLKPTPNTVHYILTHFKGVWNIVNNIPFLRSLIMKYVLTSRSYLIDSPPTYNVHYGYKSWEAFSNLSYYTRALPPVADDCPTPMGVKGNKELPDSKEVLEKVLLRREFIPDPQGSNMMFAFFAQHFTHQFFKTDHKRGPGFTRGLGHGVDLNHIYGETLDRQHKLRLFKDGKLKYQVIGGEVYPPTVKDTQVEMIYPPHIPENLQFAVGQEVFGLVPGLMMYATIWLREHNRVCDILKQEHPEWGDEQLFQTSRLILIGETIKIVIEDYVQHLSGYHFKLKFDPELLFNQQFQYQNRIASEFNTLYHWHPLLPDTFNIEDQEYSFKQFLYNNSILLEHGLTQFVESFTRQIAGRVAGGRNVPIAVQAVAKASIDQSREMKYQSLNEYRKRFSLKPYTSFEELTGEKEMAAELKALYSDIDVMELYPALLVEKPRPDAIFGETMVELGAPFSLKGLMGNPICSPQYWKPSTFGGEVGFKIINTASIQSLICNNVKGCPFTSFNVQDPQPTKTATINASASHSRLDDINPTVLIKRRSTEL
Chain of Prostaglandin G/H synthase 2 (Mus musculus, UniProt Q05769, R106Q) (Q05769 18-604 R106Q limits assumed): as the sequence (Q05769 18-604 V509I limits assumed) above, with R89Q, I492V counted along it

Broadly, the IC50 is the concentration that gives 50% inhibition. Read a high IC50 as weaker potency. As to `COc1cc([C@@H]2c3cc4c(cc3[C@@H](n3cc(CO[C@@H]5O[C@H](CO[C@@H]6O[C@H](CO)[C@@H](O)[C@H](O)[C@H]6O)[C@@H](O)[C@H](O)[C@H]5O)nn3)[C@H]3COC(=O)[C@H]23)OCO4)cc(OC)c1OC`, the IC50 in the assay with A549 [1], in the assay on SW480 [2], with HL-60 [3], with SMMC-7721 [4] and in the assay with MCF7 [5] was 670 nM throughout.
Take `COc1ccc2c(c1)c(CC(=O)NCCCCNC(=O)CCC(=O)O[C@H]1c3cc4c(cc3[C@@H](c3cc(OC)c(OC)c(OC)c3)[C@H]3C(=O)OC[C@@H]31)OCO4)c(C)n2C(=O)c1ccc(Cl)cc1`: the IC50 in assay [6] is 90 nM; with RKO, < 30 nM; with RAW264.7 it was < 30 nM; in the assay on MDA-MB-231, < 30 nM; in the assay on IMR-5 it was < 30 nM; with NCI-H292, < 30 nM. For the same molecule, the half-maximal inhibitory concentration (IC50) in [7] was 90 nM; in [8], 90 nM; with HCT-116, < 30 nM; in assay [10] it was 90 nM; in assay [11], < 30 nM. Further, in [9], the inhibition in vivo at 2 mg/kg turned out to be 50%.
`COc1cc(/C=C/c2ccc(OCC(=O)O[C@H]3c4cc5c(cc4[C@@H](c4cc(OC)c(OC)c(OC)c4)[C@H]4C(=O)OC[C@@H]43)OCO5)cc2)cc(OC)c1`: the “Ratio IC50” value in [12] was 3.6; in assay [14], 34.2. The IC50 in assay [13] amounted to 81 nM; in assay [15] it was 347 nM.
Turning to `COc1cc([C@@H]2c3cc4c(cc3[C@@H](n3cc(CO[C@H]5O[C@H](CO)[C@H](O)[C@H](O)[C@H]5O)nn3)[C@H]3COC(=O)[C@H]23)OCO4)cc(OC)c1O`, the IC50 in the assay with A549 [16], with SMMC-7721 [17], with HL-60 [20], in the assay with MCF7 [24] and in the assay with SW480 [25] was 2850 nM each time. Further, the “Ratio IC50” value with HL-60 [18], in the assay on SW480 [19], with MCF7 [21], with A549 [22] and with SMMC-7721 [23] was 2 in each case.
Take `COc1cc([C@@H]2c3cc4c(cc3[C@@H](OC(=O)CCSC(=S)N/N=C/c3ccccn3)[C@H]3COC(=O)[C@H]23)OCO4)cc(OC)c1O`: the IC50 was 3890 nM in the assay with HepG2 [26] and 11000 nM in assay [28]. Moreover, in the assay on HepG2 [27], the Activity is 93.8%.
